Results from patent US10570179B2, “Substituted urea depsipeptide analogs as activators of the CLPP endopeptidase” (priority 2016, dated 2020).
In brackets after ≈: the same amount, converted by molar mass. Numbered stars: 1 amine (or outer) side, 2 acyl side, 3 side chain; on linkers, the order of the positions; unused ones are H or OH. Bridge positions count the residues as written; N and C are the ends. Square brackets hold non-standard residues; d marks the D form. Peptide text beside a SMILES is read from it. * marks the point of attachment. ξ: configuration not given here. Piperazine(2S-CO,4-Me) = CN1CCN[C@H](C(=O)O)C1; Phe(3,5-Me2) = Cc1cc(C)cc(C[C@H](N)C(=O)O)c1; Phe(3-Me) = Cc1cccc(C[C@H](N)C(=O)O)c1; NH(4-Cl-2-F-phenyl) = Fc1cc(Cl)ccc1N*; Pro(4R-Me) = C[C@H]1CN[C@H](C(=O)O)C1; Hyp = O=C(O)[C@@H]1C[C@@H](O)CN1; ξNMeThr = CNC(C(=O)O)[C@@H](C)O; aThr = C[C@H](O)[C@H](N)C(=O)O; Pip = O=C(O)[C@@H]1CCCCN1; CO = O=C([*:1])[*:2]

Tests used:
S. aureus ΔClpP = assay: Minimal inhibitory concentration, microbroth dilution; assay type: cell-based, Staphylococcus aureus; settings: MIC; ClpP inactivated
Procedure, shortened: (§1)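 Susceptibility testing used the CLSI dilution standard, with bacteria at ~10^5 cfu/mL exposed to a two-fold compound series beginning at 200 μM final. The endpoint is the lowest concentration showing no growth after overnight incubation (37 °C, aerobic).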

Sa-ClpP = biological target: T1, Sa-ClpP (Staphylococcus aureus, UniProt Q2G036); assay: ADEP displacement fluorescence polarization assay; assay type: binding, S. aureus; settings: displacement of FP probe ADEP 2591 from Sa-ClpP
T1 construct: made in house; host or cells: E. coli BL21 (DE3)
T1 sequence (Q2G036 whole entry): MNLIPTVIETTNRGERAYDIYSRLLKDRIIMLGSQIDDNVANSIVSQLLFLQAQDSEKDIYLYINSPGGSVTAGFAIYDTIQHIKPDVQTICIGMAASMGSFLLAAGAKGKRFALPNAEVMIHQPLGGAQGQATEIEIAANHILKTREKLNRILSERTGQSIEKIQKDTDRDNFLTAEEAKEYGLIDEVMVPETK
Protocol: A fluorescence polarization (FP) assay was used to determine the activity of the disclosed compounds in displacing an ADEP analogue from ClpP. Briefly, the assay was performed in black 384 well, flat bottom, low volume plates (Greiner Bio-One, Monroe, N.C., catalog #784076). 20 μL of a pre-equilibrated (1 hr, room temperature) master mix (15 μM Sa-ClpP, 2% DMSO (v/v) and 50 nM FP probe in TrisHCl, pH 8.0)) was pipetted into each well using a Well-Mate (Thermo Scientific, Waltham, Mass.). Sa-ClpP was prepared as described above for the ClpP activation assay. The FP probe was ADEP 2591 (structure shown above). The ADEP 2591 comprises a TAMRA fluorophore linked to a core based on modified ADEP 2378 via a short alkyl linker. Using pin transfer, approximately 0.4 μL (2% v/v DMSO) of each compound or control was added per well. After addition of compounds and controls, plates were allowed to incubate for an additional 120 minutes at room temperature. All assays were performed in triplicate. Polarization was monitored using an EnVision Multilabel reader (Perkin-Elmer, Waltham, Mass.) by exciting the FP probe at 530±25 nm, and monitoring fluorescence intensity of both parallel and perpendicular polarized light at 579±25 nm. Readout was in millipolarization units (mP).
Signal gain and G factors were determined in wells containing 200 μM ADEP 2378, which had been previously verified (data not shown) as containing completely unbound ADEP 2591. Data collected was normalized to values obtained from positive (200 μM ADEP 2378) or negative (DMSO) controls. Curves were fit with non-linear regression using the equation “log [inhibitor] vs. Response-variable slope (four parameters)-symmetrical” in the program Prism 6 (GraphPad Software, La Jolla, Calif. USA, www.graphpad.com). The structures for ADEP 2378 and ADEP 2591 are shown above. ADEP 2378 is (E)-N—((S)-1-(((2R,6S,8aS,14aS,20S,23aS)-2,6-dimethyl-5,8,14,19,23-pentaoxooctadecahydro-1H,5H,14H,19H-pyrido[2,1-i]dipyrrolo[2,1-c:2′,1′-1][1]oxa[4,7,10,13]tetraazacyclohexadecin-20-yl)amino)-1-oxo-3-phenylpropan-2-yl)pent-2-enamide. ADEP 2591 is 5-(3-(3-((6S,9S,11aS,17S,20aS)-6,10-dimethyl-5,8,11,16,20-pentaoxo-17-((S)-2-((E)-pent-2-enamido)-3-phenylpropanamido)hexadecahydro-1H,5H,16H-dipyrrolo[2,1-c:2′,1′-1][1]oxa[4,7,10,13]tetraazacyclohexadecin-9-yl)propyl)thioureido)-2-(6-(dimethylamino)-3-(dimethyliminio)-3H-xanthen-9-yl)benzoate.

Plasma stability assay [1] = assay type: in vitro ADME, human; settings: human, 10 μM
Protocol: (§2) The plasma stability property of early drug discovery compounds can influence the in vivo efficacy of the test compounds/drugs. Human and/or mouse plasma degradation is determined using multiple time points to monitor the rate of disappearance of the parent compound during incubation.
(§3) Sample preparation for plasma stability was modified from Di et al. (2005) Int. J. Pharm. 297(1-2): 110-119. A set of incubation times of 0, 3, 24, and 48 hour were used. DMSO stock solutions of test compounds were prepared at 10 mM concentration. 1.8 μL of each test compound was each added directly to 1.8 mL of human/mouse plasma to get the final concentration of 10 μM. This compound/matrix was mixed and 70 μL was transferred to 8 time points plates (each in triplicate wells). For the Time 0 plate, 210 μL of cold acetonitrile with internal standard (4 μg/mL warfarin) was added to each well and no incubation needed. For other seven time points' plate, the plate was incubated at 37° C. for required time, followed by quenching of the reaction by adding 210 μL of cold acetonitrile with internal standard (4 μg/ml warfarin) to each well. All of the plates were sealed and mixed well at 600 rpm for 10 min and were centrifuged at 4000 rpm for 20 min. The supernatants (120 μL) were transferred to analytical plates for analysis by LCMS. Conditions for Waters ACQUITY-UPLC-MS-UV system was described separately. The plasma stability was evaluated via the half-life from least-squares fit of the multiple time points based on first-order kinetics.

S. aureus USA 300 = assay: Minimal inhibitory concentration, microbroth dilution; assay type: cell-based; settings: Staphylococcus aureus, USA300; MIC; read-out: Minimal Inhibitory Concentrations (μM) S. aureus USA 300
Procedure, shortened: as §1

E. faecails = assay: as above; assay type: cell-based; settings: Enterococcus faecalis; MIC; read-out: Minimal Inhibitory Concentrations (μM) E. faecails
Procedure, shortened: as §1

MRSA NRS70 = assay: as above; assay type: cell-based; settings: Staphylococcus aureus; MIC; read-out: Minimal Inhibitory Concentrations (μM) MRSA NRS70
Procedure, shortened: as §1

S. aureus ATCC 29213 = assay: as above; assay type: cell-based; settings: Staphylococcus aureus, ATCC29213; MIC; read-out: Minimal Inhibitory Concentrations (μM) S. aureus ATCC 29213
Procedure, shortened: as §1

Plasma stability assay [2] = assay type: in vitro ADME, mouse; settings: mouse, 10 μM
Protocol: as §2, §3

| SMILES | Minimal Inhibitory Concentrations (μM) S. aureus ΔClpP (S. aureus ΔClpP) | IC50 (Sa-ClpP) | Human (hr) (Plasma stability assay [1]) | MIC (S. aureus USA 300) | MIC (E. faecails) | MIC (MRSA NRS70) | MIC (S. aureus ATCC 29213) | Mouse (hr) (Plasma stability assay [2]) | Human (Plasma stability assay [1]) | Mouse (Plasma stability assay [2]) |
| --- | --- | --- | --- | --- | --- | --- | --- | --- | --- | --- |
| Cc1cc(C)cc(C[C@H](NC(=O)Nc2ccc(Cl)cc2F)C(=O)N[C@@H]2C(=O)N3CCC[C@H]3C(=O)N3CCCC[C@H]3C(=O)N[C@@H](C)C(=O)N3C[C@H](C)C[C@H]3C(=O)O[C@H]2C)c1 [Compound 4, (S)-2-(3-(4-CHLORO-2-FLUOROPHENYL)UREIDO)-3-(3,5-DIMETHYLPHENYL)-N-((2R,6S,8AS,14AS,20S,21S,23AS)-2,6,21-TRIMETHYL-5,8,14,19,23-PENTAOXOOCTADECAHYDRO-1H,5H,14H,19H-PYRIDO[2,1-I]DIPYRROLO[2,1-C:2′,1′-L][1]OXA[4,7,10,13]TETRAAZACYCLOHEXADECIN-20-YL)PROPANAMIDE] ({NH(4-Cl-2-F-phenyl)-CO}-[Phe(3,5-Me2)][aThr]P[Pip]A[Pro(4R-Me)]; ester 2-C) | 25 µM | 6.45 ± 0.4 µM | >>48 hr | 0.625 µM (≈ 0.524 µg/mL) | 1.25 µM (≈ 1.05 µg/mL) | 0.156 µM (≈ 0.131 µg/mL) | 0.625 µM (≈ 0.524 µg/mL) | >>48 hr |  |  |
| Cc1cccc(C[C@H](NC(=O)Nc2ccc(Cl)cc2F)C(=O)N[C@@H]2C(=O)N3CCC[C@H]3C(=O)N(C)C([C@@H](C)O)C(=O)N[C@@H](C)C(=O)N3C[C@H](C)C[C@H]3C(=O)O[C@H]2C)c1 (stereo partly drawn) [Compound 5] ({NH(4-Cl-2-F-phenyl)-CO}-[Phe(3-Me)][aThr]P[ξNMeThr]A[Pro(4R-Me)]; ester 2-C) | >20 µM | 4.4 ± 0.4 µM |  | 0.078 µM (≈ 0.0646 µg/mL) | 0.156 µM (≈ 0.129 µg/mL) | 0.078 µM (≈ 0.0646 µg/mL) | 0.078 µM (≈ 0.0646 µg/mL) |  | >50 h | >50 h |
| Cc1cccc(C[C@H](NC(=O)Nc2ccc(Cl)cc2F)C(=O)N[C@@H]2C(=O)N3C[C@H](O)C[C@H]3C(=O)N3CCCC[C@H]3C(=O)N[C@@H](C)C(=O)N3C[C@H](C)C[C@H]3C(=O)O[C@H]2C)c1 [Compound 6, (S)-2-(3-(4-CHLORO-2-FLUOROPHENYL)UREIDO)-N-((2R,6S,8AS,14AS,16R,20S,21S,23AS)-16-HYDROXY-2,6,21-TRIMETHYL-5,8,14,19,23-PENTAOXOOCTADECAHYDRO-1H,5H,14H,19H-PYRIDO[2,1-I]DIPYRROLO[2,1-C:2′,1′-L][1]OXA[4,7,10,13]TETRAAZACYCLOHEXADECIN-20-YL)-3-(M-TOLYL)PROPANAMIDE] ({NH(4-Cl-2-F-phenyl)-CO}-[Phe(3-Me)][aThr][Hyp][Pip]A[Pro(4R-Me)]; ester 2-C) | >20 µM | 3 ± 0.2 µM |  | 0.156 µM (≈ 0.131 µg/mL) | 0.078 µM (≈ 0.0655 µg/mL) | 0.078 µM (≈ 0.0655 µg/mL) | 0.078 µM (≈ 0.0655 µg/mL) |  | >50 h | >50 h |
| Cc1cccc(C[C@H](NC(=O)Nc2ccc(Cl)cc2F)C(=O)N[C@H]2COC(=O)[C@@H]3C[C@@H](C)CN3C(=O)[C@H](C)NC(=O)[C@@H]3CCCCN3C(=O)[C@@H]3CCCN3C2=O)c1 [Compound 8, (S)-2-(3-(4-CHLORO-2-FLUOROPHENYL)UREIDO)-N-((2R,6S,8AS,14AS,20S,23AS)-2,6-DIMETHYL-5,8,14,19,23-PENTAOXOOCTADECAHYDRO-1H,5H,14H,19H-PYRIDO[2,1-I]DIPYRROLO[2,1-C:2′,1′-L][1]OXA[4,7,10,13]TETRAAZACYCLOHEXADECIN-20-YL)-3-(M-TOLYL)PROPANAMIDE] | >20 µM | 3.51 ± 0.1 µM |  | 0.313 µM (≈ 0.254 µg/mL) | 0.156 µM (≈ 0.126 µg/mL) | 0.156 µM (≈ 0.126 µg/mL) | 0.625 µM (≈ 0.506 µg/mL) |  | 34.37 h | >50 h |
| Cc1cccc(C[C@H](NC(=O)Nc2ccc(Cl)cc2F)C(=O)N[C@H]2COC(=O)[C@@H]3C[C@@H](C)CN3C(=O)[C@H](C)NC(=O)[C@@H]3CCCCN3C(=O)[C@@H]3C[C@@H](O)CN3C2=O)c1 [Compound 10] | >20 µM | 4.65 ± 0.2 µM |  | 0.313 µM (≈ 0.259 µg/mL) | 0.313 µM (≈ 0.259 µg/mL) | 0.313 µM (≈ 0.259 µg/mL) | 0.313 µM (≈ 0.259 µg/mL) |  | 58.50 h | >50 h |
| Cc1cccc(C[C@H](NC(=O)Nc2ccc(Cl)cc2F)C(=O)N[C@@H]2C(=O)N3CCC[C@H]3C(=O)N3CCN(C)C[C@H]3C(=O)N[C@@H](C)C(=O)N3C[C@H](C)C[C@H]3C(=O)O[C@H]2C)c1 [Compound 11, (S)-2-(3-(4-CHLORO-2-FLUOROPHENYL)UREIDO)-N-((6AS,12S,13S,15AS,17R,21S,23AS)-2,13,17,21-TETRAMETHYL-6,11,15,20,23-PENTAOXOOCTADECAHYDRO-2H,6H,11H,15H-PYRAZINO[2,1-I]DIPYRROLO[2,1-C:2′,1′-L][1]OXA[4,7,10,13]TETRAAZACYCLOHEXADECIN-12-YL)-3-(M-TOLYL)PROPANAMIDE] ({NH(4-Cl-2-F-phenyl)-CO}-[Phe(3-Me)][aThr]P[Piperazine(2S-CO,4-Me)]A[Pro(4R-Me)]; ester 2-C) | >20 µM | 3.45 ± 0.2 µM |  | 0.078 µM (≈ 0.0655 µg/mL) | 0.078 µM (≈ 0.0655 µg/mL) | 0.078 µM (≈ 0.0655 µg/mL) | 0.078 µM (≈ 0.0655 µg/mL) |  | 44.21 h | 36.62 h |
| Cc1cccc(C[C@H](NC(=O)Nc2ccc(Cl)cc2F)C(=O)N[C@H]2COC(=O)[C@@H]3C[C@@H](C)CN3C(=O)[C@H](C)NC(=O)[C@@H]3CCCCN3C(=O)[C@@H]3C[C@H](N)CN3C2=O)c1 [Compound 12, (S)—N-((2R,6S,8AS,14AS,16S,20S,23AS)-16-AMINO-2,6-DIMETHYL-5,8,14,19,23-PENTAOXOOCTADECAHYDRO-1H,5H,14H,19H-PYRIDO[2,1-I]DIPYRROLO[2,1-C:2′,1′-L][1]OXA[4,7,10,13]TETRAAZACYCLOHEXADECIN-20-YL)-2-(3-(4-CHLORO-2-FLUOROPHENYL)UREIDO)-3-(M-TOLYL)PROPANAMIDE] | >20 µM | 6.03 ± 0.3 µM |  | 0.625 µM (≈ 0.516 µg/mL) | 1.25 µM (≈ 1.03 µg/mL) | 1.25 µM (≈ 1.03 µg/mL) | 1.25 µM (≈ 1.03 µg/mL) |  | 38.58 h | 18.63 h |
